Drawing on patent US10160755B2 (Plexxikon Inc., priority 2015, dated 2018), this text covers IC50 for 22 compounds.

Each structure is given as a SMILES string.

Assay [1] concerns the target T1, FLT3-ITD (Homo sapiens, UniProt P36888).
T1 construct: FLT3-ITD; Invitrogen #PV6190
T1 sequence (P36888 1-993): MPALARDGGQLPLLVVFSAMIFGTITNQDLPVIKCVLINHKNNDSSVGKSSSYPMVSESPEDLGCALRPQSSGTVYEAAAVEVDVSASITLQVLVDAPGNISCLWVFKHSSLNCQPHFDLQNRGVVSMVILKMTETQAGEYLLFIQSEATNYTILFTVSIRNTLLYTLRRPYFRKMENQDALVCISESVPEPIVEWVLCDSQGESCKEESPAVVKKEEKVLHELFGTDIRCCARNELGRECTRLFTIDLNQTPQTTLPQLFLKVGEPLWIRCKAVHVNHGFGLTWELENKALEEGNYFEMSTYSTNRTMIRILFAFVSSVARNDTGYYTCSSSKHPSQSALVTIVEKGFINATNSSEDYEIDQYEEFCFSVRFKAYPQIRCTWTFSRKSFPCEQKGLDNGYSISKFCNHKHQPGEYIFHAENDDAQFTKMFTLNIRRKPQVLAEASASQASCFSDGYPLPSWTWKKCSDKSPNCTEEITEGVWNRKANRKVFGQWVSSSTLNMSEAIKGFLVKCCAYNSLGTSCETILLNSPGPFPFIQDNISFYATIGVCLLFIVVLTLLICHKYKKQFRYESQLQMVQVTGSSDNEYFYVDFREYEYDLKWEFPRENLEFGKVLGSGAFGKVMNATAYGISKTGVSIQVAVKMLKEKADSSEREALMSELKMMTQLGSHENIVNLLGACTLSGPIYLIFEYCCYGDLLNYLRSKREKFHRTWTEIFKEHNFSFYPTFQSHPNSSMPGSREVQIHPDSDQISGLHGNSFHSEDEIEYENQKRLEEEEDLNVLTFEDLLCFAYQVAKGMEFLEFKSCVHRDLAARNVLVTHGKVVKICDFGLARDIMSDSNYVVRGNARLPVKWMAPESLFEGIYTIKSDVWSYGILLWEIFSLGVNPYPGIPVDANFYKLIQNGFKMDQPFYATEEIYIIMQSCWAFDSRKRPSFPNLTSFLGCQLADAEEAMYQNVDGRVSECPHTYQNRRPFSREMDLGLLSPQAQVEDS
In words: FLT3-ITD biochemical kinase assay (AlphaScreen). The gist of the method: (§1)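 AlphaScreen read-out of tyrosine phosphorylation of a 30 nM biotinylated poly(Glu4-Tyr) substrate, captured on streptavidin donor and PY20 acceptor beads at room temperature. ATP for IC50 work was 100 μM with FLT3-ITD and 10 μM with FLT3-D835Y; reduced 580 nm proximity signal reflects kinase inhibition.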
On the technique in general: In Alpha technology, singlet oxygen from a donor bead excites a nearby acceptor bead.

Assay [2] has as its target T2, FLT3-D835Y (Homo sapiens, UniProt P36888, D835Y).
T2 construct: purchased Invitrogen PV3967
T2 sequence (P36888 27-993 D835Y): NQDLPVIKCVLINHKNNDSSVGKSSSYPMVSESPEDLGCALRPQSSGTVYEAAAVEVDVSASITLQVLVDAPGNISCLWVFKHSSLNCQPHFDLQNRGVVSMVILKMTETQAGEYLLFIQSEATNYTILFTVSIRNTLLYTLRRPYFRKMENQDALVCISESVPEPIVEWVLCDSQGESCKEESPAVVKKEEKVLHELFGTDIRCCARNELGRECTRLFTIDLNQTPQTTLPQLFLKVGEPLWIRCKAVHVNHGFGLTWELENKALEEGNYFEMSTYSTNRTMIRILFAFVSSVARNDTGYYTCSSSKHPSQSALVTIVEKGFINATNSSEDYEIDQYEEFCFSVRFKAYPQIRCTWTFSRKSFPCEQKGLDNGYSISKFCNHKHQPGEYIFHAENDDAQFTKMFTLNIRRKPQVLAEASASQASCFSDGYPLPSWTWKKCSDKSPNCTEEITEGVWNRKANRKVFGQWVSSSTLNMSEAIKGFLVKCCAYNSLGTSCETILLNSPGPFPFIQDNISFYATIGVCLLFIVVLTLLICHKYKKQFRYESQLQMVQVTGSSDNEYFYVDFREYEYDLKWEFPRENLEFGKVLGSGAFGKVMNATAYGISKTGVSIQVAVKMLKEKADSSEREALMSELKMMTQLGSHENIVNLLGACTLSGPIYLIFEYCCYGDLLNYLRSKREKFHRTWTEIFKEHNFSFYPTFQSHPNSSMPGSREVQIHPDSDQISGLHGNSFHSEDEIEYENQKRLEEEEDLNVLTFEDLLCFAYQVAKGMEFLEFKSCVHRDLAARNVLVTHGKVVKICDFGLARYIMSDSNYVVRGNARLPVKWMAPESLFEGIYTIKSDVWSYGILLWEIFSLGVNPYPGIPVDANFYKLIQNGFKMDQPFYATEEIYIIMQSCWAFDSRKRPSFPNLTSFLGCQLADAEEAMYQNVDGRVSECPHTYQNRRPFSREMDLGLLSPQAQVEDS
In words: FLT3-D835Y biochemical kinase assay (AlphaScreen). The gist of the method: as §1

By IC50 is commonly meant the concentration that gives 50% inhibition. Lower therefore signals higher potency. Turning to `Cc1ncc(C#Cc2cnc3[nH]cc(-c4ccc5ncn(C6CCCNC6)c5c4)c3n2)cn1` (stereo not drawn) [P-285, 2-[2-(2-methylpyrimidin-5-yl)ethynyl]-7-[3-(3-piperidyl)benzimidazol-5-yl]-5H-pyrrolo[2,3-b]pyrazine], the IC50 in assay [1] and in assay [2] was 0.0001 to 1 µM in each case.

In assay [2], `COc1cnc2[nH]cc(-c3ccc4ncn(C(C)(C)C)c4c3)c2c1` [P-074, 1-tert-butyl-6-(5-methoxy-1H-pyrrolo[2,3-b]pyridin-3-yl)benzimidazole] showed an IC50 of 0.0001 to 1 µM.

As to `c1cc(N2CCOCC2)ncc1-c1cnc2[nH]cc(-c3ccc4ncn(C5CCCNC5)c4c3)c2c1` (stereo not drawn) [P-321, 4-[5-[3-[3-(3-piperidyl)benzimidazol-5-yl]-1H-pyrrolo[2,3-b]pyridin-5-yl]-2-pyridyl]morpholine], the IC50 in assay [1] and in assay [2] was 0.0001 to 1 µM each time.

Consider `O=S1(=O)CCCN1c1ccc(-c2cnc3[nH]cc(-c4ccc5ncn(C6CCCNC6)c5c4)c3c2)cc1` (stereo not drawn) [P-319, 2-[4-[3-[3-(3-piperidyl)benzimidazol-5-yl]-1H-pyrrolo[2,3-b]pyridin-5-yl]phenyl]-1,2-thiazolidine 1,1-dioxide], for which the IC50 in assay [1] and in assay [2] was 0.0001 to 1 µM in each case.

With `c1cc(-c2cnc3[nH]cc(-c4ccc5ncn(C6CCCNC6)c5c4)c3c2)cc(N2CCOCC2)c1` (stereo not drawn) [P-317, 4-[3-[3-[3-(3-piperidyl)benzimidazol-5-yl]-1H-pyrrolo[2,3-b]pyridin-5-yl]phenyl]morpholine], the IC50 in assay [1] and in assay [2] was 0.0001 to 1 µM throughout.

As for `CC(C)(C)n1cnc2ccc(-c3c[nH]c4ncc(-c5ccc(N6CCCS6(=O)=O)cc5)cc34)cc21` [P-320, 2-[4-[3-(3-tert-butylbenzimidazol-5-yl)-1H-pyrrolo[2,3-b]pyridin-5-yl]phenyl]-1,2-thiazolidine 1,1-dioxide], the IC50 in assay [1] and in assay [2] was 0.0001 to 1 µM in each case.

Take `COc1ncc(-c2cnc3[nH]cc(-c4ccc5ncn(C6CCCNC6)c5c4)c3c2)cn1` (stereo not drawn) [P-276, 5-(2-methoxypyrimidin-5-yl)-3-[3-(3-piperidyl)benzimidazol-5-yl]-1H-pyrrolo[2,3-b]pyridine]: the IC50 in assay [1] and in assay [2] was 0.0001 to 1 µM each time.

As to `CC(C)(C)n1cnc2ccc(-c3c[nH]c4ncc(-c5ccc(N6CCCCC6)cc5)nc34)cc21` [P-345, 7-(3-tert-butylbenzimidazol-5-yl)-2-[4-(1-piperidyl)phenyl]-5H-pyrrolo[2,3-b]pyrazine], the IC50 in assay [1] and in assay [2] was 0.0001 to 1 µM each time.

As to `CN1CCN(c2cccc(-c3cnc4[nH]cc(-c5ccc6ncn(C7CCCNC7)c6c5)c4n3)c2)CC1` (stereo not drawn) [P-332, 2-[3-(4-methylpiperazin-1-yl)phenyl]-7-[3-(3-piperidyl)benzimidazol-5-yl]-5H-pyrrolo[2,3-b]pyrazine], the half-inhibitory concentration (IC50) in assay [1] and in assay [2] was 0.0001 to 1 µM each time.

As to `O=S1(=O)CCCN1c1cc(-c2cnc3[nH]cc(-c4ccc5ncn(C6CCCNC6)c5c4)c3n2)ccn1` (stereo not drawn) [P-295, 2-[4-[7-[3-(3-piperidyl)benzimidazol-5-yl]-5H-pyrrolo[2,3-b]pyrazin-2-yl]-2-pyridyl]-1,2-thiazolidine 1,1-dioxide], the half-inhibitory concentration (IC50) in assay [1] and in assay [2] was 0.0001 to 1 µM throughout.

As for `c1cc(N2CCCCC2)ncc1-c1cnc2[nH]cc(-c3ccc4ncn(C5CCCNC5)c4c3)c2n1` (stereo not drawn) [P-348, 7-[3-(3-piperidyl)benzimidazol-5-yl]-2-[6-(1-piperidyl)-3-pyridyl]-5H-pyrrolo[2,3-b]pyrazine], the IC50 in assay [1] and in assay [2] was 0.0001 to 1 µM throughout.

Turning to `CC(C)(C)n1cnc2ccc(-c3c[nH]c4ncc(-c5cnc(O)nc5)nc34)cc21` [P-363, 5-[7-(3-tert-butylbenzimidazol-5-yl)-5H-pyrrolo[2,3-b]pyrazin-2-yl]pyrimidin-2-ol], the IC50 in assay [1] and in assay [2] was 0.0001 to 1 µM in each case.

In the case of `CC(C)(C)n1cnc2ccc(-c3c[nH]c4ncc(-c5cnc(C#N)nc5)nc34)cc21` [P-352, 5-[7-(3-tert-butylbenzimidazol-5-yl)-5H-pyrrolo[2,3-b]pyrazin-2-yl]pyrimidine-2-carbonitrile], the IC50 in assay [1] and in assay [2] was 0.0001 to 1 µM throughout.

On to `Cc1ncc(C#Cc2cnc3[nH]cc(-c4ccc5ncn(C(C)(C)C)c5c4)c3n2)cn1` [P-284, 7-(3-tert-butylbenzimidazol-5-yl)-2-[2-(2-methylpyrimidin-5-yl)ethynyl]-5H-pyrrolo[2,3-b]pyrazine], for which the IC50 in assay [1] and in assay [2] was 0.0001 to 1 µM throughout.

On to `c1nc(N2CCOCC2)ncc1-c1cnc2[nH]cc(-c3ccc4ncn(C5CCCNC5)c4c3)c2c1` (stereo not drawn) [P-277, 4-[5-[3-[3-(3-piperidyl)benzimidazol-5-yl]-1H-pyrrolo[2,3-b]pyridin-5-yl]pyrimidin-2-yl]morpholine], for which the IC50 in assay [1] and in assay [2] was 0.0001 to 1 µM throughout.

Take `CC(C)(C)n1cnc2ccc(-c3c[nH]c4ncc(-c5ccnc(N6CCCCS6(=O)=O)c5)nc34)cc21` [P-309, 2-[4-[7-(3-tert-butylbenzimidazol-5-yl)-5H-pyrrolo[2,3-b]pyrazin-2-yl]-2-pyridyl]thiazinane 1,1-dioxide]: the IC50 in assay [1] and in assay [2] was 0.0001 to 1 µM each time.

Regarding `CCN1CCN(c2cccc(-c3cnc4[nH]cc(-c5ccc6ncn(C7CCCNC7)c6c5)c4n3)c2)CC1` (stereo not drawn) [P-329, 2-[3-(4-ethylpiperazin-1-yl)phenyl]-7-[3-(3-piperidyl)benzimidazol-5-yl]-5H-pyrrolo[2,3-b]pyrazine], the half-inhibitory concentration (IC50) in assay [1] and in assay [2] was 0.0001 to 1 µM each time.

Consider `CC(C)(C)n1cnc2ccc(-c3c[nH]c4ncc(-c5ccnc(C#N)c5)cc34)cc21` [P-291, 4-[3-(3-tert-butylbenzimidazol-5-yl)-1H-pyrrolo[2,3-b]pyridin-5-yl]pyridine-2-carbonitrile], for which the IC50 in assay [1] and in assay [2] was 0.0001 to 1 µM throughout.

`CC(C)(C)n1cnc2ccc(-c3c[nH]c4ncc(-c5cnc(F)c(F)c5)nc34)cc21` [P-390, 7-(3-tert-butylbenzimidazol-5-yl)-2-(5,6-difluoro-3-pyridyl)-5H-pyrrolo[2,3-b]pyrazine] came in with an IC50 in assay [1] of 1 to 10 µM.

For the compound `COc1ncc(-c2cnc3[nH]cc(-c4ccc5ncn(C(C)(C)C)c5c4)c3n2)cc1C#N` [P-405, 5-[7-(3-tert-butylbenzimidazol-5-yl)-5H-pyrrolo[2,3-b]pyrazin-2-yl]-2-methoxy-pyridine-3-carbonitrile], in assay [1], the IC50 is 0.0001 to 1 µM.

`COc1cnc2[nH]cc(-c3ccc4ncn(-c5ccccc5)c4c3)c2c1` [P-068, 5-methoxy-3-(3-phenylbenzimidazol-5-yl)-1H-pyrrolo[2,3-b]pyridine] had an IC50 in assay [2] of 0.0001 to 1 µM.

In the case of `CC(C)(C)n1cnc2ccc(-c3c[nH]c4ncc(-c5ccnc(C#N)c5)nc34)cc21` [P-301, 4-[7-(3-tert-butylbenzimidazol-5-yl)-5H-pyrrolo[2,3-b]pyrazin-2-yl]pyridine-2-carbonitrile], the IC50 in assay [2] lay within 0.0001 to 1 µM.
